6 molecules from patent US5298521A, “1,5-diphenyl-3-pyrazolylalkyl-N-hydroxydithiocaramates, compositions and use” (Ortho Pharmaceutical Corporation, priority 1993, dated 1994) can be followed below.

The target in experiment [1] is T1, Sheep seminal vesicle cyclooxygenase (Ovis aries, UniProt P05979).
T1 construct: Sheep seminal vesicle (SSV) cyclooxygenase (95% pure); purchased Biomol (Plymouth Meeting, Pa.); host or cells: sheep seminal vesicle
T1 sequence (P05979 25-600): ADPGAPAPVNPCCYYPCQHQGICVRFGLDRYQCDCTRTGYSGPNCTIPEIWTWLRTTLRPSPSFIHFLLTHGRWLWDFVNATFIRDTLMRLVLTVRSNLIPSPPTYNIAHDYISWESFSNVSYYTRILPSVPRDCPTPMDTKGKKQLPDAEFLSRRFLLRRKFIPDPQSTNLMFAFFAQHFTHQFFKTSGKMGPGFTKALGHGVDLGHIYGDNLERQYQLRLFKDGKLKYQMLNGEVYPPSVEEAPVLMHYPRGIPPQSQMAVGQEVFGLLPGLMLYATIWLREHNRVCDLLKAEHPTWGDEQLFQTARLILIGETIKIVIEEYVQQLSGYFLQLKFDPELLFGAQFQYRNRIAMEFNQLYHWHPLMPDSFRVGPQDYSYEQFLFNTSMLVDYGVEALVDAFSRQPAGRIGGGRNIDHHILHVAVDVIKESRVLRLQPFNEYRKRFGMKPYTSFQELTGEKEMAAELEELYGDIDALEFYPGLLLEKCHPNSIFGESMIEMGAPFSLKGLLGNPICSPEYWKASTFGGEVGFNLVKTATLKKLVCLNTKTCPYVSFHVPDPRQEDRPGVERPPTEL
Nature of the experiment: Sheep seminal vesicle cyclooxygenase (Procedure I). Format: biochemical. The note with it: read-out: PROC. I % INHIB CO. As to the method:
Sheep seminal vesicle cyclooxygenase Sheep seminal vesicle (SSV) cyclooxygenase (95% pure, prostaglandin endoperoxide synthase, EC 1.14.99.1 specific activity 24 units/mg protein) obtained as a lyophilized powder from Biomol (Plymouth Meeting, Pa.) was reconstituted at a concentration of 59 mg/mL in Hanks' Balanced Salt Solution (HBSS). The enzyme was divided into 200 μL aliquots, snap frozen with liquid N2, and stored at -70° C. unitl immediately prior to use. Measurements of CO activity were carried out in polypropylene tubes containing 495 μL of HBSS to which was added 5 μL of inhibitor or dimethylsulfoxide (DMSO; vehicle control) and 6 μL of SSV CO solution. The tubes were mixed on a vortex shaker, preincubated for 5 min at 37° C. prior to the initiation of the reaction. The reaction was started by the addition of [^14 C]-arachidonic acid (1-^14 C-AA, Amersham, Arlington Heights, Il) in 10 μL of methanol. Tubes were again vortexed and incubated in a water bath for 20 minutes after which the tubes were removed and the reaction stopped by acidification with the addition of 1 mL 2M formic acid. Lipophilic products were extracted with 3 mL chloroform and concentrated to dryness under N2. Each pellet was reconstituted with 40 μL of chloroform and spotted on a Whatman Silicon thin-layer chromatography plate and developed in a chromatography tank containing A-9 solvent (11:5:2:1 V:V:V:V, ethyl acetate:trimethylpentane:acetic acid:double distilled-H2 O). Radioactive cyclooxygenase products (prostaglandin D2, prostaglandin E2, etc.) were measured using a Bioscan System 200 Imaging Scanner. Inhibition of enzyme activity was calculated by comparing the areas under the curve produced in the presence or absence of test compound.

In experiment [2] the target is T2, RBL-1 cell cyclooxygenase (Rattus norvegicus, UniProt Q63921).
T2 construct: the supernatant was saved as the source of enzymes; endogenous in cells; host or cells: RBL-1 rat basophilic leukemia cells, homogenate supernatant
T2 sequence (Q63921 27-602): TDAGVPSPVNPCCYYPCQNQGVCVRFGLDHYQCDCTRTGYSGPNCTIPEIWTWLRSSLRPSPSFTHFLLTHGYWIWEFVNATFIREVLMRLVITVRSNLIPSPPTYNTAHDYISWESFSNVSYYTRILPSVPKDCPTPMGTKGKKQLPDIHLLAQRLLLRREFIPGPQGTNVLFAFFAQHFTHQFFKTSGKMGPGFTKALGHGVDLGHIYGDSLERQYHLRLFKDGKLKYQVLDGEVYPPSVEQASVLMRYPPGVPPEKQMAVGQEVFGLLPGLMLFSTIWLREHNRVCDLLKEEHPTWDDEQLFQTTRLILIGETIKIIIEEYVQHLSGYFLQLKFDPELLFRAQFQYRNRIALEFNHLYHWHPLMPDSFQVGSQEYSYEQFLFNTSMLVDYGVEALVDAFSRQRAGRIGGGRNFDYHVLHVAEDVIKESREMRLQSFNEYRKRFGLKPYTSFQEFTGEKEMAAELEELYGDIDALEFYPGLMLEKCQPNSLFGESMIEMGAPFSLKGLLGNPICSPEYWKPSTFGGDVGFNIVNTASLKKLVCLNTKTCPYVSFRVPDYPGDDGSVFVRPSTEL
The experiment is described as follows: RBL-1 cell cyclooxygenase, cell homogenate supernatant (Procedure II). Format: biochemical. To be noted: RBL-1 homogenate; for inhibition at 3 µM: read-out: PROC. II % INHIBITION CO; for IC50: read-out: PROC. II IC50 CO. On the procedure:
RBL-1 cell 5-lipoxygenase and cyclooxygenase
Rat basophilic leukemia cells (RBL-1; 5×10^7 viable cells/mL) were disrupted by homogenization on ice (four 20 sec bursts) with a Brinkman polytron. Complete cell breakage was verified microscopically. The homogenate was then centrifuged at 10,000×g for 48 minutes at 4° C. The pellet was discarded and the supernatant was saved as the source of enzymes. The supernatant was pre-incubated for five minutes at 37° C. in the presence of 2 mM of CaCl2 and compound or vehicle (1% DMSO). The conversion of AA into 5-LO products was initiated by adding 10 μL (50 μCi) of 1-^14 C-AA to each tube and incubated at 37° C. for 20 minutes. The reaction was stopped by adjusting the pH of each sample to 3 to 3.5 with 2M formic acid. Samples were extracted with three volumes of chloroform to isolate the products of 5-LO formed during the reaction. Fractions were dried under nitrogen, then resuspended in 40 μL of chloroform and spotted onto silica gel HL plates. The plates were developed in A-9 solvent. The dried plates were analyzed using a Bioscan Imaging TLC scanner to determine the percentage of radiolabelled AA converted to 5-HETE in each sample.

Take `COc1ccc(-n2nc(CSC(=S)N(O)C(C)C)c(Br)c2-c2ccc(Cl)cc2)cc1` [1-E]: the inhibition at 3 µM in experiment [1] worked out at 0%. In experiment [2], the inhibition at 3 µM came to 0% and the IC50 – broadly, the concentration at which inhibition is half-maximal – is 1.96 µM.
Take `COc1ccc(-n2nc(CSC(=S)N(C)O)c(Cl)c2-c2ccc(C)cc2)cc1` [1-H]: the values for the inhibition at 3 µM in experiment [1] and in experiment [2] were 39% and 95%, respectively.
Consider `COc1ccc(-n2nc(CSC(=S)N(O)C(C)C)cc2-c2ccc(C)cc2)cc1` [1-G], for which the inhibition at 3 µM in experiment [1] worked out at 36%. For the same molecule, in experiment [2], the inhibition at 3 µM was determined as 30% and the IC50 turned out to be 0.03 µM.
For the molecule `COc1ccc(-n2nc(CSC(=S)N(O)C(C)C)cc2-c2ccc(Cl)cc2)cc1` [1-B], the values for the inhibition at 3 µM in experiment [1] and in experiment [2] were 39% and 100%, respectively. In experiment [2], the half-maximal inhibitory concentration (IC50) is 8.07 µM.
On the same counts, the results for `COc1ccc(-n2nc(CSC(=S)N(O)C(C)C)c(Cl)c2-c2ccc(Cl)cc2)cc1` [1-D] are 31%, 0% and 1.67 µM.
As for `COc1ccc(-n2nc(CSC(=S)N(C)O)c(Cl)c2-c2ccc(Cl)cc2)cc1` [1-C], the inhibition at 3 µM came to 46% in experiment [1] and 75% in experiment [2].
